Experimental data taken from US20050020611A1, “Compounds” (priority 2003, published 2005).

Legend:
[1] = tested on: TNFα release from human peripheral blood mononuclear cells; assay: Inhibition of LPS-stimulated TNFα release from human peripheral blood mononuclear cells (TNFα screen, ELISA); type: cell-based; conditions: human PBMC, 18 hours incubation, TNFα in supernatant by ELISA
Method: Venous blood is collected from healthy volunteers and the mononuclear cells purified by centrifugation through Histopaque (Ficoll) cushions. TNFα production from these cells is stimulated by addition of lipopolysaccharide. After 18 hours incubation in the presence of LPS, the cell supernatant is removed and the concentration of TNFα in the supernatant determined by ELISA.

PDE4 = PDE4 inhibition: hydrolysis of tritium labelled cAMP to AMP, SPA bead scintillation counting; type: biochemical; conditions: 50% reduction in counts compared to PDE4 only control wells
Method: The PDE4 inhibitory activity of the nicotinamide derivatives of the formula (I) is determined by the ability of compounds to inhibit the hydrolysis of cAMP to AMP by PDE4 (Thompson J W, Teraski W L, Epstein P M, Strada S J., “Assay of nucleotidephosphodiesterase and resolution of multiple molecular forms of the isoenzyme”, Advances in cyclic nucleotides research, edited by Brooker G, Greengard P, Robinson G A. Raven Press, New York 1979, 10, p. 69-92). Tritium labelled cAMP is incubated with PDE4. Following incubation, the radiolabelled AMP produced is able to bind yttrium silicate SPA beads. These SPA beads subsequently produce light that can be quantified by scintillation counting. The addition of a PDE4 inhibitor prevents the formation of AMP from cAMP and counts are diminished. The IC50 of a PDE4 inhibitor can be defined as the concentration of a compound that leads to a 50% reduction in counts compared to the PDE4 only (no inhibitor) control wells.

Row | SMILES | IC50 [1] | IC50 (PDE4)
1 | Cc1cccc(C(=O)N[C@H]2CC[C@@H](NC(=O)c3cc(F)cnc3OC3CCSCC3)CC2)c1OCCO [Example 9] | 0.1 nM | 2.8 nM
2 | Cc1ccc(C(=O)N[C@H]2CC[C@@H](NC(=O)c3cc(F)cnc3OC3CCSCC3)CC2)c(OCCO)c1 [Example 10] | 0.04 nM | 5 nM
3 | O=C(N[C@H]1CC[C@@H](NC(=O)c2cc(F)cnc2OC2CCSCC2)CC1)c1ccccc1OCCCO [Example 14, Syn-5-Fluoro-N-{4-[2-(3-hydroxy-propoxy)-benzoylamino]-cyclohexyl}-2-(tetrahydro-thiopyran-4-yloxy)-nicotinamide] | 0.1 nM | –
4 | CCOc1cc(O)ccc1C(=O)N[C@H]1CC[C@@H](NC(=O)c2cc(F)cnc2OC2CCSCC2)CC1 [Example 22, Syn-N-[4-(2-Ethoxy-4-hydroxy-benzoylamino)-cyclohexyl]-5-fluoro-2-(tetrahydro-thiopyran-4-yloxy)-nicotinamide] | 0.2 nM | –
5 | O=C(N[C@H]1CC[C@@H](NC(=O)c2cc(F)cnc2OC2CCSCC2)CC1)c1ccc(O)cc1OCC1CC1 [Example 23] | 0.2 nM | –
6 | O=C(N[C@H]1CC[C@@H](NC(=O)c2cc(F)cnc2OC2CCSCC2)CC1)c1ccc(O)cc1OC1CCCC1 [Example 24, Syn-N-[4-(2-Cyclopentoxy-4-hydroxy-benzoylamino)-cyclohexyl]-5-fluoro-2-(tetrahydro-thiopyran-4-yloxy)-nicotinamide] | 0.1 nM | –
7 | COc1ccc(C)cc1S(=O)(=O)N[C@H]1CC[C@@H](NC(=O)c2cccnc2OC2CCSCC2)CC1 [Example 27, Syn-N-[4-(2-methoxy-5-methyl-benzenesulfonylamino)-cyclohexyl]-2-(tetrahydro-thiopyran-4-yloxy)-nicotinamide] | 5 nM | –

The next lines start with the values.

Row | IC50 [1] | IC50 (PDE4) | SMILES
8 | 0.7 nM | – | COc1cc(O)ccc1C(=O)N[C@H]1CC[C@@H](NC(=O)c2cc(F)cnc2OC2CCSCC2)CC1 [Example 1]
9 | 1.5 nM | – | COc1ccccc1-c1cc(C(=O)N[C@H]2CC[C@@H](NC(=O)c3cc(F)cnc3OC3CCSCC3)CC2)n[nH]1 [Example 2, Syn-5-Fluoro-N-(4-{[5-(2-methoxy-phenyl)-1H-pyrazole-3-carbonyl]-amino}-cyclohexyl)-2-(tetrahydro-thiopyran-4-yloxy)-nicotinamide]
10 | 0.02 nM | – | COc1ccn2ccnc2c1C(=O)N[C@H]1CC[C@@H](NC(=O)c2cc(F)cnc2OC2CCSCC2)CC1 [Example 3, Syn-7-Methoxy-imidazo[1,2-a]pyridine-8-carboxylic acid(4-{[5-fluoro-2-(tetrahydro-thiopyran-4-yloxy)-pyridine-3-carbonyl]-amino}-cyclohexyl)amide]
11 | 0.04 nM | 1.5 nM | O=C(N[C@H]1CC[C@@H](NC(=O)c2cc(F)cnc2OC2CCSCC2)CC1)c1ccccc1OCCO [Example 4, Syn-5-Fluoro-N-{4-[2-(2-hydroxy-ethoxy)-benzoylamino]-cyclohexyl}-2-(tetrahydro-thiopyran-4-yloxy)-nicotinamide]
12 | 0.02 nM | 1 nM | Cc1ccc(OCCO)c(C(=O)N[C@H]2CC[C@@H](NC(=O)c3cc(F)cnc3OC3CCSCC3)CC2)c1 [Example 5]
13 | 4 nM | – | Cc1cnc(OC2CCSCC2)c(C(=O)N[C@H]2CC[C@@H](NC(=O)c3ccccc3OCCO)CC2)c1 [Example 13, Syn-N-{4-[2-(2-Hydroxy-ethoxy)-benzoylamino]-cyclohexyl}-5-methyl-2-(tetrahydro-thiopyran-4-yloxy)-nicotinamide]
14 | 0.2 nM | – | COc1ccc2cccnc2c1S(=O)(=O)N[C@H]1CC[C@@H](NC(=O)c2cc(F)cnc2OC2CCSCC2)CC1 [Example 28, Syn-5-Fluoro-N-[4-(7-methoxy-quinoline-8-sulfonylamino)-cyclohexyl]-2-(tetrahydro-thiopyran-4-yloxy)-nicotinamide]
15 | 0.4 nM | – | COc1ccc2cccnc2c1S(=O)(=O)N[C@H]1CC[C@@H](NC(=O)c2cccnc2OC2CCSCC2)CC1 [Example 29, Syn-N-[4-(7-methoxy-quinoline-8-sulfonylamino)-cyclohexyl]-2-(tetrahydro-thiopyran-4-yloxy)-nicotinamide]
